# Measured values taken from patent US8299096B2, “Method for treating pulmonary diseases using rho kinase inhibitor compounds” (priority 2008, dated 2012).
# “Also recorded” adds a separate entry of the source.
# Legend:
# [1] = test system: rat tracheal rings; test: Tracheal relaxation assay, carbachol precontracted rings; settings: Rattus norvegicus, read-out: IC50 Avg, tracheal ring relaxation
# Experimental: Trachea were excised, cleaned of connective tissue and cut into cylindrical segments of 2-3 mm length. Two stainless steel wires were guided through the lumen of the tracheal ring. One wire was fixed in the tissue bath and the other was connected to a force transducer via surgical silk. […] Indomethacin (1 μM), a cyclooxygenase inhibitor, was added to the Krebs buffer and was present throughout the experiments. Contractile tensions were measured using an isometric force transducer (Grass Instruments) and signals were analyzed using specialized software (Chart v5.5, ADInstruments). The preparations were allowed to equilibrate at a resting tension of 0.3 to 0.5 gm prior to two challenges with 60 mM KCl to assess tissue viability. After washing, tissues were treated with 1 μM carbachol for 10 to 15 minutes to induce a contractile response. Test Compounds were added cumulatively to the bath every 30 minutes and reductions in tension were recorded. Basal tension was subtracted from all values and data were reported as a percentage of the maximal carbachol-induced contraction. Data were fit to the Hill equation using GraphPad Prism v5 software.
# [2] = test system: human neutrophils; test: Human neutrophil chemotaxis (fMLP-induced); assay type: cell-based; settings: 1 h, read-out: Chemotaxis Avg IC50
# Experimental: Peripheral blood from healthy human volunteers was collected and the neutrophils were isolated by Ficoll-paque density centrifugation followed by dextran sedimentation and hypotonic lysis of the red blood cells. Neutrophil chemotaxis was assessed using a modified Boyden Chamber (Neuroprobe, 96-well) with a 3 μm pore polycarbonate membrane. The ability of the tested compounds to block chemotaxis induced by a 1 μM fMLP challenge during a one hour incubation at 37° C. with 5% CO2 was assessed in a dose response manner.
# [3] = test system: rat tracheal rings pretreated with IL-1β and TNF-α or vehicle; test: Effect of inflammatory cytokines on tracheal relaxation; settings: 300 nM carbachol
# Experimental: Male Sprague-Dawley rats weighing 301-325 gm were sacrificed by asphyxiation in a CO2 chamber. Trachea were excised, cleaned of connective tissue and cut into cylindrical segments of 2-3 mm length. Tissues were treated for 18 hours at 37° C. in F12 media with penicillin-streptomycin and 0.1% BSA alone or with 10 ng/ml IL-1β and 100 ng/ml TNF-α. Tissues were then washed free of cytokines with Krebs buffer. Contractile tensions were measured using an isometric force transducer (Grass Instruments) as described for Example 3 and signals were analyzed using specialized software (Chart v5.5, ADInstruments). Tissues were treated with 300 nM carbachol for 10 to 15 minutes to induce a contractile response. Test Compounds were added cumulatively to the bath every 30 minutes and reductions in tension were recorded. Basal tension was subtracted from all values and data were reported as a percentage of the maximal carbachol-induced contraction. Data were fit to the Hill equation using GraphPad Prism v5 software.
# [4] = test system: ovalbumin-sensitized mice; test: Bronchodilator assay in ovalbumin-sensitized mouse model of asthma (Penh); assay type: in vivo; settings: for Reduction in airway hyperresponsivness: oral doses
# Experimental: Male BALB/c mice were ordered from Charles River Laboratories (Raleigh, N.C.). The animals were approximately 19 to 21 grams at time of receipt. Upon arrival, the animals were randomized into groups of five males per cage and assigned to a dosing group. Animals were quarantined for 7 days under test conditions. They were observed daily for general health status and ability to adapt to the water bottles.
# Animals were sensitized on day 0 and 14 of study by an intraperitoneal injection with 20 μg of ovalbumin (ova) and 2.0 mg aluminum hydroxide (alum) which initiates the development of a specific T-helper (Th) cells type 2 resulting in asthmatic animals. One group of animals received an injection of saline to use as non-asthmatic control animals. All animals were challenged with aerosolized 1% ova once daily for 25 minutes on days 28, 29, and 30 (Zosky, et al. Respiratory Research, 2004; 5:15). Aerosol challenge consists of using an Aerogen Aeroneb nebulizer and controller with a particle size of 4-6 μm mass median aerodynamic diameter (MMAD) with a distribution of 400 μl per minute. This aerosol challenge is necessary to target the Th2-driven allergic inflammation in the lower airways.
# The test compounds and the control vehicle were administered to animals on the day of airway hyperreactivity evaluation 30 minutes to 1 hour before the evaluation to determine the bronchodilator effects of the compounds according to the bronchodilator dosing paradigm (FIG. 3A). Compounds were administered p.o. (orally), i.p. (intraperitoneally) at 15 μMol/kg unless otherwise noted (Table 4). Alternatively, compounds were administered i.t. (intratracheally) at varying doses as shown (FIG. 3B). On day 32 of the experiment, airway hyperreactivity was evaluated by placing conscious, unrestrained animals in a whole body plethysmometer (Buxco Wilmington, N.C.) and exposing them to escalating doses of nebulized methacholine, a known bronchial constrictor which acts through the muscarinic receptors of the lungs, (doses: […]-50 mg/ml). Exposure to the methacholine doses consisted of a 3 minute period during which a nebulizer was aerosolizing the methacholine and an additional 3 minute period following the cessation of nebulization. Over this 6 minute period, the plethysmometer monitors and generates numerical values for all parameters of the breath pattern. Enhanced pause (Penh), a unitless index of airway hyperreactivity, is derived from the expiratory side of the respiratory waveform measured via the plethysmograph and is used as an indirect measure of airway resistance and hyperreactivity. […] Following the methacholine dose response, all animals were anesthetized, bled and euthanized.
# Within each experiment, a mouse was given a single compound and exposed to increasing doses of methacholine [0 (baseline), 0.375, 0.75, 1.5, 3, 6, 12, 25, 50 mg/ml]. The Penh value at each of the dose levels of methacholine represents the 6-minute average response. Change from baseline (CFB) in Penh was calculated at each methacholine dose and the area under the curve (AUC) for these CFB values was calculated using the trapezoidal rule. This same approach was applied for each mouse across multiple experiments.
# For statistical analyses, a linear mixed-effects model where the response was the log 10 transformed value of AUC described above was used. Data from equal experimental conditions across experiments performed on different days were pooled for statistical analysis and data reporting. The various compounds were compared adjusting for the log 10-transformed baseline value of Penh and the chamber (1 of 10) of the plethysmometer each mouse was contained in during an experiment. A random intercept for each experiment was assumed to account for possible similarities of the results obtained from a given experiment (i.e., as a “blocking effect”).
# For Table 4 and Table 5, Penh values are reported as log 10 transformed AUC values. […]
# [5] = test system: ovalbumin-sensitized mice; test: Anti-inflammatory assay in ovalbumin-sensitized mouse model of asthma (BALF cells and cytokines); assay type: in vivo
# Text: Mouse model of asthma via ovalbumin sensitization was created as described in Example 5. The anti-inflammatory dosing paradigm (FIG. 4) was utilized to evaluate the anti-inflammatory effects of experimental compounds. The anti-inflammatory dosing paradigm consists of dosing the animals once a day starting on day 27 and finishing on either day 30 or 31 (1 hr prior to the aerosolized ovalbumin challenges on days 28 to 30) but not on day 32 when hyper-reactivity evaluation occurs.
# Bronchoalveolar lavage fluid (BALF) was collected by infusing 3.0 ml of saline with 10% fetal calf serum into the lungs via the trachea and then withdrawing the fluid. The total amount of cells/ml of BALF fluid was determined via manual cell count on hemocytometer. The BALF was centrifuged, supernatant removed and analyzed for cytokine concentrations as described below, and cell pellet reconstituted in 500 μL of fluid. Cytospin slides were prepared from the cell pellet using 100 μL of fluid and spinning samples for 5 minutes at 5000 rpms in a cytospin centrifuge. Following Hema3 stain, relative percentages of individual leukocytes were determined on a 200 cell count for each sample. The final concentration of individual leukocyte cell types per ml of BALF was determined by multiplication of the relative percentage of individual leukocytes with the total amount of cells/ml of BALF fluid.
# The concentrations of cytokines in the BALF samples were determined using commercially available Bio-plex kits (Bio-Rad) for the detection of mouse IL-5, IL-13, and Eotaxin. The analysis of cytokine levels was measured using the Bio-Plex 200 (Bio-Rad) system according to the manufacturer's instructions.
# [6] = Rat oral pharmacokinetics (plasma); assay type: in vivo
# Experimental: Plasma (EDTA K2 anticoagulant) was collected from male, cannulated, CD Sprague Dawley rats to determine the pharmacokinetics of formulations containing compound inhibitors of Rho kinase. Each animal was dosed orally with a 4 ml/kg solution or suspension of each test compound in 10 mM acetate buffered saline, pH 4.5 at a final concentration range of 20-30 μmol/kg. Blood was collected at 0.25, 0.5, 1, 2, 4, 6, 8, and 24 hours. Plasma samples were assayed for the concentration of the test compound using an on-line, solid phase extraction LC/MS/MS analysis system.
# Samples were analyzed on a QSTAR Elite, hybrid quadrupole time-of-flight mass spectrometer (Applied Biosystems, Framingham, Mass.) coupled with a Symbiosis Pharma integrated, on-line SPE-HPLC system (Spark Holland Inc., Plainsboro, N.J.). Analyst QS 2.0 software was used for instrument control, data acquisition and processing. […] Mobile Phase A consisted of 0.1% ammonium hydroxide in water and Mobile Phase B consisted of 0.1% formic acid in acetonitrile. Pharmacokinetic analyses were performed using WinNonlin software version 5.2 (Pharsight Corporation, Mountain View, Calif.).
# [7] = test system: LPS-challenged mice; test: LPS-induced neutrophilia and cytokine production assay; assay type: in vivo, mouse
# Experimental: Male BALB/c mice, approximately 19 to 21 grams, were ordered from Charles River Laboratories (Raleigh, N.C.). All animals were challenged with aerosolized LPS (10 μg/ml) for 25 minutes on study day 0. LPS aerosol was generated using an Aerogen Aeroneb nebulizer and controller providing a flow of 400 μl/min and a particle size of 2-4 μm MMAD. Rolipram was administered i.p at 20 mg/kg. […] Four hours following LPS challenge, BALF was collected using a total of 3 ml of 0.9% sodium chloride containing 10% fetal calf serum. Total cell counts were determined using the Coulter Counter. For differential evaluations, BALF was centrifuged and cytospin slides prepared and stained with Hema3 stain. Manual leukocyte counts were then completed on 200 cells. The final concentration of individual leukocyte cell types per ml of BALF was determined by multiplication of the relative percentage of individual leukocytes with the total amount of cells/ml of BALF fluid. The concentration of IL-1β in the BALF samples was determined using commercially available Bio-plex kits (Bio-Rad). The analysis of cytokine levels was measured using the Bio-Plex 200 (Bio-Rad) system according to the manufacturer's instructions.
# [8] = test system: A-10 rat thoracic aorta cells; test: PDGF-stimulated smooth muscle cell proliferation assay (BrdU); assay type: cell-based; settings: 10 ng/mL PDGF, A-10 cells
# Experimental: Effects on cell proliferation were measured using a bromodeoxyuridine (BrdU) incorporation assay. […] Serum free media containing 0.1% BSA was added to the cells. 24 hours later the media was removed and replaced with warmed serum free media. […] Proliferation was then monitored using the BrdU Cell Proliferation Assay, HTS (Calbiochem cat. #HTS01). BrdU was allowed to incorporate into cells for 24 hours prior to the addition of fixative/denaturing solution and the fluorometric detection of incorporated BrdU using a BrdU antibody as per manufacturer's directions. Data are reported as a percent of the PDGF-stimulated BrdU incorporation.
# [9] = test system: rat aorta; test: Aortal relaxation assay, norepinephrine precontracted; settings: 100 nM norepinephrine, 100 μM compound
# Experimental: The effects of compounds to induce relaxation of pre-contracted rat pulmonary artery and rat aorta were determined. Male Sprague-Dawley rats weighing 301-325 gm were sacrificed by asphyxiation in a CO2 chamber. Pulmonary artery or aorta were excised, cleaned of connective tissue and cut into cylindrical segments of 2-3 mm length. The preparations were mounted in a tissue bath by tying two threads of surgical silk through the lumen of the vessel. One silk was used to anchor the tissue to a metal wire in the bath and the other silk was connected to a force transducer. Preparations were mounted in 5 ml water-jacketed organ baths (Radnoti Glass Technology) filled with Krebs buffer (95 mM NaCl, 5 mM KCl, 2.6 mM CaCl2, 1.2 mM MgSO4, 24.9 mM NaHCO3, 1.2 mM KH2PO4, 10 mM glucose) maintained at 37° C. and gassed with 95% O2 and 5% CO2. Contractile tensions were measured using an isometric force transducer (Grass Instruments) and signals were analyzed using specialized software (Chart v5.5, ADInstruments). […] For pulmonary artery, compounds were added cumulatively to the bath every 30 minutes and reductions in tension were recorded. […] For aorta, a single dose of compound was added and reductions in tension were recorded.
# [10] = test system: ovalbumin-sensitized mice; test: Prevention of airway hyperreactivity development, anti-inflammatory dosing paradigm (Penh); assay type: in vivo, mouse; settings: oral, 15 μMol/kg once a day during days 27 to 31
# [11] = test system: human eosinophils; test: Human eosinophil chemotaxis (eotaxin-induced); assay type: cell-based; settings: 1 nM eotaxin, one hour
# Text: Human Eosinophil Isolation: Peripheral blood from healthy human volunteers was collected and the PMNs separated via Ficoll-paque density centrifugation followed by hypotonic lysis of the red blood cells. Subsequently, the human eosinophils were isolated from the cell suspension via StemCell Technologies Human Eosinophil Enrichment kit (Cat. No 19256) according to the manufacturer's recommendations. Briefly, unwanted cells were specifically labeled with dextran-coated magnetic nanoparticles using bispecific Tetrameric Antibody Complexes (TAC) directed against cell surface antigens on human blood cells: […] The unwanted cells are then separated from the unlabelled eosinophils using the EasySep® magnetic isolation procedure. In Vitro Chemotaxis: […]
# [12] = test system: murine eosinophils; test: Murine eosinophil chemotaxis (eotaxin-induced); assay type: cell-based, mouse; settings: 10 nM eotaxin, one hour
# Experimental: Mouse Eosinophil Isolation: Bronchoalveolar lavage was collected from ovalbumin sensitized and challenged mice in a volume of 2.5 mL lavage buffer. The lavage buffer was 0.9% saline with 10% fetal bovine serum. The pooled lavages were maintained on ice until use. The murine eosinophils were isolated using MACS cell separation (Miltenyi Biotech) by depletion of B cells and T cells by positive selection following incubation with antibody conjugated magnetic beads specific for CD45-R (B220) and CD90 (Thy 1.2), which bind B cells and T cells, respectively.
# In Vitro Chemotaxis: Eosinophil chemotaxis was assessed using a modified Boyden Chamber (Neuroprobe, 96-well) with a 5 μm pore membrane. The ability of the tested compounds to block chemotaxis induced by a 10 nM eotaxin challenge (mouse) or 1 nM eotaxin challenge (human) during one hour incubation at 37° C. with 5% CO2 was assessed. Chemotaxis was quantified via microscopy by counting the number of migrated cells in at least 3 view fields per treatment.
# [13] = Compound plasma concentrations in mice at 15 min post administration; assay type: in vivo, mouse; settings: mouse plasma, 15 minutes, oral
# Experimental: Additionally, compound concentrations were determined in the plasma and lungs of male, ovalbumin-sensitized, Balb/c mice from a murine model of asthma. Test compounds were formulated in water or 1% polysorbate 80 and dosed at 15 μmol/kg for intraperitoneal (IP) or oral (PO) administration or formulated for intratracheal (IT) administration and dosed at 5 μmol/kg, which directly targets the lungs. Following completion of the in vivo study, mice were euthanized and blood and plasma collected approximately 2.5-3 hours post administration of test compound for bronchodialator (BD) studies and 24 hours post administration for anti-inflamatory (AI) studies. Lungs were homogenized in Matrix A lysing tubes using a FastPrep 24 tissue and cell homogenizer (MP Biomedicals, Solon, Ohio). Both plasma samples and lung extracts were assayed for compound concentrations using an on-line, solid phase extraction LC/MS/MS system.
# [14] = rat, oral, 20-30 μmol/kg, plasma, mean n = 3
# [15] = 15 μmol/kg/oral on days 27 to 31
smiles,measurement,setting,value
"Cc1cncc2cccc(S(=O)(=O)N3CCCNC[C@@H]3C)c12 [Compound H-1152, 4-methyl-5-(2-methyl-[1,4]diazepan-1-sulfonyl)isoquinoline]",IC50,[1],0.164 µM
same,IC50,[2],4.35 µM
CS(=O)(=O)Nc1cccc(CN2CCC[C@H](Nc3ccc4[nH]ncc4c3)C2)c1 [Compound 1.091],Potency in cytokine-pretreated versus vehicle-pretreated tissues,[3],slightly more potent in cytokine-pretreated tissues
same,Relaxation of tracheal rings from vehicle-pretreated and cytokine-pretreated tissues,"[3]; 10 ng/ml IL-1β and 100 ng/ml TNF-α, 18 hours",fully efficacious
same,Reduction in airway hyperresponsiveness,"[4]; i.p. route of administration, compared to oral dosing",enhanced reduction
same,Bronchodilatory response,[4]; intratracheal administration,robust bronchodilatory response
same,Reduction in airway hyperresponsivness,[4],did not yield a significant reduction
same,Eosinophils in BALF,"[5]; dosed i.t. to day 30, anti-inflammatory dosing paradigm",reduction of eosinophils
same,Oral bioavailability,[6]; oral dosing,poor
same,AUC (0-last),[6]; [14],below the level of quantification
same,Cmax,[6]; [14],below the level of quantification
same,Efficacy on neutrophilia compared to rolipram dosed i.p.,[7]; dosed intratracheally,similar
same,IL-1β levels in BALF,"[7]; intratracheal administration, LPS-challenged mice",reduction
same,LPS-induced pulmonary neutrophilia (BALF),"[7]; intratracheal dosing one hour prior to LPS challenge, mice",significant reduction; also recorded: dose-dependent inhibition
CSc1ccc(CN2CC[C@@H](Nc3cccc4cnccc34)C2)cc1 [Compound 2.026],Percent of PDGF Induced Proliferation at 1 μM Avg,[8]; 1 μM,74.5%
same,Percent of PDGF Induced Proliferation at 10 μM Avg,[8]; 10 μM,52.0%
OCCOc1cccc(CN2CC[C@@H](Nc3cccc4cnccc34)C2)c1 [Compound 2.039],Norepinephrine-induced tension of aortal ring,[9],fully reversed
CS(=O)(=O)Nc1cccc(CN2CC[C@@H](Nc3cccc4cnccc34)C2)c1 [Compound 2.038],Reduction in airway hyperresponsivness,[4],statistically significant reduction
same,Eotaxin level in BALF,[5]; [15],reduced levels
same,IL-5 level in BALF,[5]; [15],reduced levels
same,IL-13 level in BALF,[5]; [15],reduced levels
same,Airway eosinophil infiltration (eosinophils per ml of BALF),"[5]; dosed orally to day 31, anti-inflammatory dosing paradigm",reduced
same,Prevention of airway hyperreactivity to metacholine on Day 32,[10],prevention of airway hyperreactivity
same,Eotaxin-induced chemotactic response of human eosinophils,[11],inhibited
same,Eotaxin-induced chemotactic response of murine eosinophils,[12],inhibited
same,Detection in mouse plasma 15 minutes after oral dosing,[13],readily detectable
